The values below come from patent EP4721737A1, “USE OF PHARMACEUTICAL COMPOSITION COMPRISING COMPOUND HAVING BIS(AZANYLYLIDENE) SULFONYL STRUCTURE FOR TREATING ANEMIA-RELATED DISEASES” (Scinnohub Pharmaceutical Co., Ltd., priority 2023, dated 2024).

By AC50 is commonly meant the concentration at which the activity in the assay is half-maximal. A word on the AUC(0-t): it is exposure summed from dosing to a finite time, without extrapolation to infinity. As a reminder, the Cmax is the highest concentration seen after dosing. By Tmax is commonly meant the time at which the peak concentration occurs. A word on the clearance: it is a measure of how efficiently the substance is removed, as volume per time. The low end stands for inefficient removal, the high end for efficient removal. What is called half-life is how long it takes for the measured level to halve. A high value points to slow decline.

Like-named read-outs stand apart in the source and are kept apart here.

Data set [1] concerns the target T1, PKR in ex vivo red blood cells from healthy individuals (Homo sapiens, UniProt P30613).
T1 construct: endogenous in cells; host or cells: human red blood cells isolated from fresh peripheral blood of healthy individuals
Kind of data set: ex vivo pyruvate kinase (PKR) activity experiment, red blood cells of healthy individuals. In kind it is cell-based. Particulars: 3 hours co-cultivation. In outline: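 Washed, Percoll-purified human RBCs at 1 × 10^7 cells/mL were exposed to compound (final 1–3000 nM, 1% DMSO) for 3 h at 37°C, then lysed. PKR activity in lysate was followed kinetically by fluorescence at 540/590 nm over 1 h. Slope versus 1% DMSO control gave % activation; AC50 from variable-slope fit.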

The nature of data set [2]: pharmacokinetic properties test in mice. The note with it: ICR mouse, single, plasma; for MRT last: read-out: MRT0-t; for Vd: read-out: Vss. It is filed as in vivo. As for the experimental part: The pharmacokinetic properties of the compounds of the present disclosure in different animal species were investigated by measuring plasma drug concentrations following intravenous and oral gavage in mouse, rat, and dog.
i. The compounds were weighed, then the solvent (5% DMSO + 10% Solutol + 85% saline) was added to prepare the administration solution. ii. On the day before the experiment, animals in the oral administration group were fasted overnight (10-14 hours) and fed 4 hours after administration. iii. At each time point after administration, approximately 30 µL of venous blood was collected from an appropriate location in each group of animals and placed in a sodium heparin tube. Blood samples were placed on ice and centrifuged within 1 hour to separate plasma (centrifugation conditions: 6800 g, 6 min, 2-8°C). Plasma samples were stored at -80°C until analysis.
b) An LC-MS/MS analytical method was developed for measuring compound concentrations in mouse, rat, and dog plasma. This method was used to determine compound concentrations in biological samples obtained in this assay.
Pharmacokinetic parameters were calculated using Phoenix WinNonlin 7.0 using plasma drug concentration data at different time points.

T1 sequence (P30613 whole entry): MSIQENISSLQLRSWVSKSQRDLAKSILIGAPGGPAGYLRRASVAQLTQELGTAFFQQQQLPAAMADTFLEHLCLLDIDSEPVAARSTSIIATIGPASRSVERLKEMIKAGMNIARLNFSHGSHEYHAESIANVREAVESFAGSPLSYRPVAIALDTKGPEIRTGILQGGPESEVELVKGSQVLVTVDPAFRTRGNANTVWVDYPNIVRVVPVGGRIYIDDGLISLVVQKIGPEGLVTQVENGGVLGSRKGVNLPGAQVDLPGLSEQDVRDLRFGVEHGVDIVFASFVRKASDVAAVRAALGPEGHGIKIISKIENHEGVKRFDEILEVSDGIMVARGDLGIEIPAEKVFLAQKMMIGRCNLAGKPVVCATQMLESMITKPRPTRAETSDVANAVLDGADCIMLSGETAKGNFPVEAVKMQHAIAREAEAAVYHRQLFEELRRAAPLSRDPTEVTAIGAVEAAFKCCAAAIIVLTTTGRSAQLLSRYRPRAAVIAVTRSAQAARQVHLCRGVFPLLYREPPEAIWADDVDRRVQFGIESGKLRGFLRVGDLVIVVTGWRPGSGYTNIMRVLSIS

In turn, `N#Cc1ccc(S(=O)(=O)N2CC(=C3CN(C(=O)[C@H](CO)c4ccccc4)C3)C2)cc1` [Compound 65, (S)-4-(1'-(3-hydroxy-2-phenylpropionyl)-1',4'-dihydro-2H,2'H-[3,3'-diazetidinylidene]-1(4H)-ylsulfonyl)benzonitrile] displayed an AC50 in data set [1] of less than 100 nM. In addition, in data set [2] (1 mg/kg intravenous injection), the area under the curve AUC(0-t) is 679 ng·h/mL, the peak level (Cmax) was 945 ng/mL, the time of peak concentration (Tmax) came out at 4.8 min and the clearance is 25.1 mL/min/kg. Moreover, in data set [2] (1 mg/kg intravenous injection), the half-life was 78 min, the MRT last amounted to 0.91 h and the Vd came to 1.5 L/kg. In data set [2] (10 mg/kg oral gavage, fasted), the AUC(0-t) amounted to 7880 ng·h/mL, the Cmax was found to be 4230 ng/mL, the Tmax came to 19.8 min and the half-life is 105 min. For the same molecule, the MRT last in data set [2] (10 mg/kg oral gavage, fasted) was 1.89 h.
Turning to `O=C([C@H](CO)c1ccc(F)cc1F)N1CC(=C2CN(S(=O)(=O)c3ccccn3)C2)C1` [Compound 83, (S)-2-(2,4-difluorophenyl)-3-hydroxy-1-(1'-(pyridin-2-ylsulfonyl)-1',4'-dihydro-2H,2'H-[3,3'-diazetidinylidene]-1(4H)-yl)propan-1-one], in data set [2] (1 mg/kg intravenous injection), the exposure AUC(0-t) is 260 ng·h/mL, the highest level (Cmax) was 570 ng/mL, the Tmax turned out to be 4.8 min and the clearance is 62.9 mL/min/kg. Besides, in data set [2] (1 mg/kg intravenous injection), the half-life is 146 min, the MRT last worked out at 1.33 h and the Vd came out at 6.3 L/kg. Moreover, in data set [2] (10 mg/kg oral gavage, fasted), the area under the curve AUC(0-t) came to 2010 ng·h/mL, the Cmax was determined as 1440 ng/mL, the Tmax worked out at 15 min and the half-life was 122 min. In addition, the MRT last in data set [2] (10 mg/kg oral gavage, fasted) is 1.71 h.
